Data: US7605280B2, “Anthraquinone and its derivatives” (Biostatus Limited, priority 1998, dated 2009)

Tested on: viable HL60 cells
Experiment: CLSM analysis of nuclear fluorescence in viable cells
Format: cell-based, human
Conditions: 10 μM for 1 h
From the text: The system used was a Leica TCS 4D (LaserTechnik Gmbh, Germany) scanner coupled to a Leitz DM R microscope and operating with an Ominchrome argon/krypton laser. The laser provided emission lines at 488, 568 and 647 nm with variable power. Coverslip cultures were washed briefly in PBS, mounted in inverted positions on glass slides, the coverslips being supported at the edges by a piping of petroleum jelly to prevent the cells from being compressed. The slides were examined immediately using ×100 or ×40 oil immersion objective lenses with mid-range pinhole and photomultiplier gain settings. Excitation/emission wavelengths for DRAQ5, fluorescein and rhodamine 123 were 647 nm/>665 nm, 488 nm/>515 nm and 488 nm/>590 nm respectively. Gain settings were adjusted such that the most fluorescent drug-treated sample gave pixel intensities just below saturation. The black level/offset was adjusted to give effectively zero background (<4 for pixel value) after 16× line noise filtration of images for untreated controls. […]
Thus, FIG. 2h to k show simultaneous CLSM capture of transmission (panels h and j) and the corresponding far red/low infra-red fluorescence (panels i and […] respectively) images of viable HL60 cells exposed to either 10 μM DRAQ5 or 10 μM DRAQ5N for 1 h. • 1. […]

SMILES: CN(C)CCNc1ccc(O)c2c1C(=O)c1c(O)ccc(NCCN(C)C)c1C2=O [DRAQ5]
- integrated nuclear fluorescence intensity per nucleus section, DRAQ5 relative to DRAQ5N-treated cells: approximately 10 fold
